Source: paper PMC7156458, “Synthetic biology based construction of biological activity-related library of fungal decalin-containing diterpenoid pyrones” (Nature Communications, 2020)

Target: Aβ42 (Homo sapiens, UniProt P05067)
Experiment: Th-T (thioflavin-T) assay of Aβ42 aggregation
Type: biochemical
Conditions: for Th-T fluorescence, mean of three wells: compound at 50

Aβ42, sequence (P05067 672-713): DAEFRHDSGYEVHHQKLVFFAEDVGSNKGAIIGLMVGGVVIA

SMILES: C=C1CCC2C(C)(CCC=C(C)C)C(O)CCC2(C)C1Cc1c(OC)oc(C)c(C(=O)OC)c1=O (stereo not drawn) [Compound 14]
- Th-T fluorescence, mean of three wells (reading M54 of time course): 4.776
- Th-T fluorescence, mean of three wells (reading M55 of time course): 4.689
- Th-T fluorescence, mean of three wells (reading M56 of time course): 4.625
- Th-T fluorescence, mean of three wells (reading M57 of time course): 4.524
- Th-T fluorescence, mean of three wells (reading M58 of time course): 4.45
- Th-T fluorescence, mean of three wells (reading M59 of time course): 4.296
- Th-T fluorescence, mean of three wells (reading M60 of time course): 4.2063
- Th-T fluorescence, mean of three wells (reading M61 of time course): 4.042
- Th-T fluorescence, mean of three wells (reading M62 of time course): 3.946
- Th-T fluorescence of Aβ42 with compound, mean of three wells (Fig. 7a source data) (concentration 10, unit not given, time-course reading M129): 2.897
- Th-T fluorescence of Aβ42 with compound, mean of three wells (Fig. 7a source data) (concentration 10, unit not given, time-course reading M130): 2.933
- Th-T fluorescence of Aβ42 with compound, mean of three wells (Fig. 7a source data) (concentration 10, unit not given, time-course reading M131): 2.925
- Th-T fluorescence of Aβ42 with compound, mean of three wells (Fig. 7a source data) (concentration 10, unit not given, time-course reading M132): 2.913
- Th-T fluorescence of Aβ42 with compound, mean of three wells (Fig. 7a source data) (concentration 10, unit not given, time-course reading M133): 2.914
- Th-T fluorescence of Aβ42 with compound, mean of three wells (Fig. 7a source data) (concentration 10, unit not given, time-course reading M134): 2.928
- Th-T fluorescence of Aβ42 with compound, mean of three wells (Fig. 7a source data) (concentration 10, unit not given, time-course reading M135): 2.926
- Th-T fluorescence of Aβ42 with compound, mean of three wells (Fig. 7a source data) (concentration 10, unit not given, time-course reading M136): 2.935
- Th-T fluorescence of Aβ42 with compound, mean of three wells (Fig. 7a source data) (concentration 10, unit not given, time-course reading M137): 2.902
- Th-T fluorescence of Aβ42 with compound, mean of three wells (Fig. 7a source data) (concentration 10, unit not given, time-course reading M138): 2.929
- Th-T fluorescence of Aβ42 with compound, mean of three wells (Fig. 7a source data) (concentration 10, unit not given, time-course reading M139): 2.934
- Th-T fluorescence of Aβ42 with compound, mean of three wells (Fig. 7a source data) (concentration 10, unit not given, time-course reading M140): 2.924
- Th-T fluorescence of Aβ42 with compound, mean of three wells (Fig. 7a source data) (concentration 10, unit not given, time-course reading M141): 2.927
- Th-T fluorescence of Aβ42 with compound, mean of three wells (Fig. 7a source data) (concentration 10, unit not given, time-course reading M142): 2.953
- Th-T fluorescence of Aβ42 with compound, mean of three wells (Fig. 7a source data) (concentration 10, unit not given, time-course reading M143): 2.943
- Th-T fluorescence of Aβ42 with compound, mean of three wells (Fig. 7a source data) (concentration 10, unit not given, time-course reading M144): 2.936
- Th-T fluorescence of Aβ42 with compound, mean of three wells (Fig. 7a source data) (concentration 10, unit not given, time-course reading M145): 2.952
- Th-T fluorescence of Aβ42 with compound, mean of three wells (Fig. 7a source data) (concentration 20, unit not given, time-course reading M129): 1.587
- Th-T fluorescence of Aβ42 with compound, mean of three wells (Fig. 7a source data) (concentration 20, unit not given, time-course reading M130): 1.596
- Th-T fluorescence of Aβ42 with compound, mean of three wells (Fig. 7a source data) (concentration 20, unit not given, time-course reading M131): 1.618
- Th-T fluorescence of Aβ42 with compound, mean of three wells (Fig. 7a source data) (concentration 20, unit not given, time-course reading M132): 1.578
- Th-T fluorescence of Aβ42 with compound, mean of three wells (Fig. 7a source data) (concentration 20, unit not given, time-course reading M133): 1.602
- Th-T fluorescence of Aβ42 with compound, mean of three wells (Fig. 7a source data) (concentration 20, unit not given, time-course reading M134): 1.594
- Th-T fluorescence of Aβ42 with compound, mean of three wells (Fig. 7a source data) (concentration 20, unit not given, time-course reading M135): 1.594
- Th-T fluorescence of Aβ42 with compound, mean of three wells (Fig. 7a source data) (concentration 20, unit not given, time-course reading M136): 1.5818
- Th-T fluorescence of Aβ42 with compound, mean of three wells (Fig. 7a source data) (concentration 20, unit not given, time-course reading M137): 1.578
- Th-T fluorescence of Aβ42 with compound, mean of three wells (Fig. 7a source data) (concentration 20, unit not given, time-course reading M138): 1.586
- Th-T fluorescence of Aβ42 with compound, mean of three wells (Fig. 7a source data) (concentration 20, unit not given, time-course reading M139): 1.563
- Th-T fluorescence of Aβ42 with compound, mean of three wells (Fig. 7a source data) (concentration 20, unit not given, time-course reading M140): 1.578
- Th-T fluorescence of Aβ42 with compound, mean of three wells (Fig. 7a source data) (concentration 20, unit not given, time-course reading M141): 1.561
- Th-T fluorescence of Aβ42 with compound, mean of three wells (Fig. 7a source data) (concentration 20, unit not given, time-course reading M142): 1.586
- Th-T fluorescence of Aβ42 with compound, mean of three wells (Fig. 7a source data) (concentration 20, unit not given, time-course reading M143): 1.575
- Th-T fluorescence of Aβ42 with compound, mean of three wells (Fig. 7a source data) (concentration 20, unit not given, time-course reading M144): 1.583
- Th-T fluorescence of Aβ42 with compound, mean of three wells (Fig. 7a source data) (concentration 20, unit not given, time-course reading M145): 1.572
- Th-T fluorescence of Aβ42 with compound, mean of three wells (Fig. 7a source data) (concentration 50, unit not given, time-course reading M129): 0.8842
- Th-T fluorescence of Aβ42 with compound, mean of three wells (Fig. 7a source data) (concentration 50, unit not given, time-course reading M130): 0.8634
- Th-T fluorescence of Aβ42 with compound, mean of three wells (Fig. 7a source data) (concentration 50, unit not given, time-course reading M131): 0.8505
- Th-T fluorescence of Aβ42 with compound, mean of three wells (Fig. 7a source data) (concentration 50, unit not given, time-course reading M132): 0.8369
- Th-T fluorescence of Aβ42 with compound, mean of three wells (Fig. 7a source data) (concentration 50, unit not given, time-course reading M133): 0.8131
- Th-T fluorescence of Aβ42 with compound, mean of three wells (Fig. 7a source data) (concentration 50, unit not given, time-course reading M134): 0.8297
- Th-T fluorescence of Aβ42 with compound, mean of three wells (Fig. 7a source data) (concentration 50, unit not given, time-course reading M135): 0.8031
- Th-T fluorescence of Aβ42 with compound, mean of three wells (Fig. 7a source data) (concentration 50, unit not given, time-course reading M136): 0.8035
- Th-T fluorescence of Aβ42 with compound, mean of three wells (Fig. 7a source data) (concentration 50, unit not given, time-course reading M137): 0.7873
- Th-T fluorescence of Aβ42 with compound, mean of three wells (Fig. 7a source data) (concentration 50, unit not given, time-course reading M138): 0.78
- Th-T fluorescence of Aβ42 with compound, mean of three wells (Fig. 7a source data) (concentration 50, unit not given, time-course reading M139): 0.7658
- Th-T fluorescence of Aβ42 with compound, mean of three wells (Fig. 7a source data) (concentration 50, unit not given, time-course reading M140): 0.7572
- Th-T fluorescence of Aβ42 with compound, mean of three wells (Fig. 7a source data) (concentration 50, unit not given, time-course reading M141): 0.7413
- Th-T fluorescence of Aβ42 with compound, mean of three wells (Fig. 7a source data) (concentration 50, unit not given, time-course reading M142): 0.7418
